Key:
Details in all cases: 72 h
[1] = system: Caco-2; experiment: cell viability relative to DMSO; higher = less toxic
[2] = system: Vero E6; experiment: as above
[3] = system: HepG2; experiment: as above
[4] = system: Calu-3; experiment: as above
[5] = system: Caco-2; experiment: relative viability EC50 (midpoint between 100% and the lowest measured viability); higher = less toxic
[6] = system: Vero E6; experiment: as above
[7] = system: HepG2; experiment: as above
[8] = system: Calu-3; experiment: as above
[9] = system: Caco-2; experiment: drug sensitivity score (DSS) for viability; higher = more toxic; extreme values may be limits of the assay
[10] = system: Vero E6; experiment: as above
[11] = system: HepG2; experiment: as above
[12] = system: Calu-3; experiment: as above
[13] = system: U2OS; experiment: cell viability relative to DMSO; higher = less toxic
[14] = system: U2OS; experiment: relative viability EC50 (midpoint between 100% and the lowest measured viability); higher = less toxic
[15] = system: U2OS; experiment: drug sensitivity score (DSS) for viability; higher = more toxic; extreme values may be limits of the assay

Row | Compound | cell viability ([1]; 1 nM) | cell viability ([1]; 10 nM) | cell viability ([1]; 100 nM) | cell viability ([1]; 1000 nM) | cell viability ([1]; 10000 nM) | cell viability ([2]; 1 nM) | cell viability ([2]; 10 nM) | cell viability ([2]; 100 nM) | cell viability ([2]; 1000 nM) | cell viability ([2]; 10000 nM) | cell viability ([3]; 1 nM) | cell viability ([3]; 10 nM) | cell viability ([3]; 100 nM) | cell viability ([3]; 1000 nM) | cell viability ([3]; 10000 nM) | cell viability ([4]; 1 nM) | cell viability ([4]; 10 nM) | cell viability ([4]; 100 nM) | cell viability ([4]; 1000 nM) | cell viability ([4]; 10000 nM) | relative viability EC50 [5] | relative viability EC50 [6] | relative viability EC50 [7] | relative viability EC50 [8] | drug sensitivity score [9] | drug sensitivity score [10] | drug sensitivity score [11] | drug sensitivity score [12] | cell viability ([13]; 1 nM) | cell viability ([13]; 10 nM) | cell viability ([13]; 100 nM) | cell viability ([13]; 1000 nM) | cell viability ([13]; 10000 nM) | relative viability EC50 [14] | drug sensitivity score [15]
1 | Cc1cccc(C)c1NC(=O)C[N+](C)(C)C [QX-222] | 107% | 97% | 99.1% | 100% | 112% | 102% | 101% | 98.7% | 105% | 99.7% | 106% | 103% | 99% | 95.5% | 95.8% | 102% | 93.8% | 107% | 94.9% | 106% | > 10 µM | > 10 µM | > 10 µM | > 10 µM | 0 | 0 | 0 | 0 | – | – | – | – | – | – | –
2 | CCOC(=O)c1ncn2c1CN(C)C(=O)c1cc(N=[N+]=[N-])ccc1-2 [Ro-15-4513] | 96.2% | 100% | 94.6% | 99.6% | 109% | 94.6% | 94% | 99.3% | 97.2% | 104% | 107% | 92.2% | 102% | 99.1% | 112% | 103% | 93.9% | 97% | 102% | 108% | > 10 µM | > 10 µM | > 10 µM | > 10 µM | 0 | 0 | 0 | 0 | – | – | – | – | – | – | –
3 | OC(c1ccc(-c2ccc(CN3CCN(Cc4ccncc4)CC3)cc2)c(F)c1)(C(F)(F)F)C(F)(F)F [SR-2211] | 113% | 95.4% | 101% | 86.4% | 76.1% | 103% | 99.8% | 103% | 100% | 103% | 94.2% | 101% | 98.8% | 95.4% | 58% | 101% | 101% | 93.6% | 95.9% | 95.5% | > 10 µM | > 10 µM | – | > 10 µM | 2.4 | 0 | 2.9 | 0 | 98.4% | 106% | 102% | 102% | 95.7% | > 10 µM | 0
4 | CCCCN(CC)c1nc(C)nc2c1c(C)c(C)n2-c1c(C)cc(C)cc1C [antalarmin] | 105% | 92.9% | 102% | 91.4% | 70.3% | 96% | 92.6% | 97.3% | 101% | 98.2% | 99% | 97.2% | 97.4% | 97.8% | 77.2% | 102% | 94.4% | 95.6% | 99% | 104% | – | > 10 µM | > 10 µM | > 10 µM | 2.5 | 0 | 1.1 | 0 | 107% | 98.8% | 98.1% | 99% | 101% | > 10 µM | 0
5 | CCOC(=O)OC(C)OC(=O)[C@@H]1N2C(=O)[C@@H](NC(=O)[C@H](N)c3ccccc3)[C@H]2SC1(C)C (stereo partly drawn) [bacampicillin] | 96.3% | 94% | 95.9% | 98% | 104% | 91.8% | 96.7% | 97.9% | 98.1% | 98.6% | 97.6% | 114% | 103% | 100% | 94.6% | 94.1% | 82.4% | 102% | 103% | 110% | > 10 µM | > 10 µM | > 10 µM | > 10 µM | 0 | 0 | 0 | 0 | – | – | – | – | – | – | –
6 | O=c1ccc2ccc(OCCCCN3CCN(c4cccc5sccc45)CC3)cc2[nH]1 [brexpiprazole] | 91.7% | 96.7% | 87.3% | 98.1% | 87.5% | 99.1% | 97.5% | 94.5% | 94.5% | 94.3% | 100% | 96.3% | 96% | 92% | 56.8% | 95.5% | 85% | 96% | 91.6% | 104% | > 10 µM | > 10 µM | – | > 10 µM | 0 | 0 | 3.5 | 0 | 97.6% | 99% | 95.6% | 101% | 86.6% | > 10 µM | 0.1
7 | COC(=O)/C=C/C(=O)OCCN1C(=O)CCC1=O [diroximel-fumarate] | 109% | 104% | 107% | 97.6% | 92.4% | 98.4% | 102% | 92.2% | 99% | 106% | 103% | 115% | 87.7% | 115% | 52.1% | 112% | 112% | 120% | 92.5% | 123% | > 10 µM | > 10 µM | – | > 10 µM | 0 | 0 | 1.8 | 0 | 101% | 101% | 105% | 103% | 98.9% | > 10 µM | 0
8 | CC1=C(CC(=O)O)c2cc(F)ccc2/C1=C\c1ccc(S(C)(=O)=O)cc1 [exisulind] | 96.4% | 104% | 91.6% | 84.6% | 94.8% | 104% | 96.2% | 87.8% | 110% | 94.8% | 106% | 95.3% | 95.4% | 96.7% | 74.8% | 95.6% | 102% | 103% | 97.6% | 112% | > 10 µM | > 10 µM | – | > 10 µM | 2.2 | 0 | 1.5 | 0 | 103% | 94.7% | 100% | 97.5% | 100% | > 10 µM | 0
9 | C[C@@H](c1nc(-c2ccc(C#N)cc2)cs1)[C@](O)(Cn1cncn1)c1cc(F)ccc1F [isavuconazole] | 96.3% | 99.8% | 96% | 93.9% | 74.3% | 100% | 98% | 102% | 98.6% | 100% | 106% | 96% | 93.8% | 100% | 79.2% | 95.7% | 90.1% | 98.7% | 101% | 99.2% | – | > 10 µM | > 10 µM | > 10 µM | 1.8 | 0 | 0.6 | 0 | 98.2% | 102% | 93.9% | 101% | 90.9% | > 10 µM | 0
10 | CCN(CC)C(=O)[C@@]1(c2ccccc2)C[C@H]1CN [milnacipran] | 99.9% | 87.3% | 87.5% | 99.8% | 98.7% | 94.6% | 102% | 97.8% | 102% | 98.2% | 101% | 86.7% | 98.9% | 107% | 90.9% | 106% | 93.5% | 97.9% | 95% | 97.9% | > 10 µM | > 10 µM | > 10 µM | > 10 µM | 0 | 0 | 0 | 0 | – | – | – | – | – | – | –
11 | CCOc1cc2ncc(C#N)c(Nc3ccc(F)c(Cl)c3)c2cc1NC(=O)/C=C/CN(C)C [pelitinib] | 96.9% | 96.9% | 85.8% | 64.7% | 51.2% | 106% | 96.4% | 87.3% | 22.6% | 7.9% | 107% | 99.5% | 99% | 59.7% | 40.2% | 88.1% | 83% | 45% | 32% | 9.5% | – | 0.334 µM | 0.706 µM | 0.0707 µM | 7.9 | 15.9 | 8.1 | 21.7 | 99% | 98.9% | 93.6% | 67.7% | 5.3% | 1.38 µM | 9.3
12 | COC[C@@H](c1ccc(C(F)(F)F)cc1)N1CCN(C2(C)CCN(C(=O)c3c(C)ncnc3C)CC2)C[C@@H]1C [vicriviroc] | – | – | – | – | – | 95.3% | 97% | 89.9% | 95.7% | 94.7% | 98.8% | 101% | 98.9% | 101% | 84.8% | 106% | 93.6% | 104% | 96.6% | 104% | – | > 10 µM | > 10 µM | > 10 µM | – | 0 | 0.2 | 0 | 100% | 94.2% | 95% | 96.6% | 95% | > 10 µM | 0

Source: the supplement of paper PMC13380429
